From patent US6743817B2, “Substituted fused pyrroleimines and pyrazoleimines” (Neurogen Corporation, priority 2000, dated 2004)

Compound: COc1ccc(NC(=O)c2n[nH]c3c2C(=NC(C)C)CCC3)cc1F
- melting point: 259 to 261 °C (dec.)
